From ChEMBL document CHEMBL1201862, “PubChem BioAssay data set” (2004)
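Growth conditions: 96-well plates. Treatment: test compound, 48 hours, 5 concentrations. Analysis: linear interpolation between bracketing concentrations; unreached endpoints set to highest concentration. GI50 marks 50% less growth.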 The source made the active and inactive calls. Rule as the data show it: active = GI50 up to about 1.1 µM and inactive = higher.

Key:
Assay in all cases: DTP human tumour cell line panel, 48 h
[1] = system: BT-549
[2] = system: CAKI-1
[3] = system: CCRF-CEM
[4] = system: DU-145
[5] = system: HCT-15
[6] = system: HT-29
[7] = system: Hs-578T
[8] = system: KM12
[9] = system: MOLT-4
[10] = system: NCI-H460
[11] = system: NCI-H522
[12] = system: NCI/ADR-RES
[13] = system: OVCAR-3
[14] = system: PC-3
[15] = system: RPMI-8226
[16] = system: SK-MEL-28
[17] = system: SK-MEL-5
[18] = system: SR
[19] = system: TK-10
[20] = system: UO-31

Row | SMILES | GI50 [1] | GI50 [2] | GI50 [3] | GI50 [4] | GI50 [5] | GI50 [6] | GI50 [7] | GI50 [8] | GI50 [9] | GI50 [10] | GI50 [11] | GI50 [12] | GI50 [13] | GI50 [14] | GI50 [15] | GI50 [16] | GI50 [17] | GI50 [18] | GI50 [19] | GI50 [20]
1 | NC(CCC(=O)c1ccccn1)C(=O)O (stereo not given) | > 100 µM (inactive) | > 100 µM (inactive) | > 100 µM (inactive) | > 100 µM (inactive) | > 100 µM | > 100 µM (inactive) | > 100 µM (inactive) | > 100 µM (inactive) | > 100 µM (inactive) | > 100 µM (inactive) | > 100 µM (inactive) | > 100 µM (inactive) | > 100 µM (inactive) | > 100 µM (inactive) | > 100 µM (inactive) | > 100 µM (inactive) | > 100 µM (inactive) | > 100 µM (inactive) | > 100 µM (inactive) | > 100 µM (inactive)
2 | CC(=O)O/C=C\OC1CCCC1(c1ccccc1)c1ccccc1 (stereo not given) | 1.95 µM (inactive) | 4.5 µM (inactive) | 2.37 µM (inactive) | 3.95 µM (inactive) | 2.13 µM | 2.91 µM (inactive) | 3.1 µM (inactive) | 3.49 µM (inactive) | 2.79 µM (inactive) | 7.26 µM (inactive) | 10.1 µM (inactive) | 2.84 µM (inactive) | 2.9 µM (inactive) | 3.12 µM (inactive) | 2.65 µM (inactive) | 2.1 µM (inactive) | 2.61 µM (inactive) | 1.98 µM (inactive) | 3.48 µM (inactive) | 1.94 µM (inactive)
3 | O=c1[nH]c2c(c(=O)[nH]1)SSC2 | 2.25 µM (inactive) | 18.9 µM (inactive) | 0.46 µM (active) | 13.8 µM (inactive) | 27.7 µM | 19.6 µM (inactive) | 24.2 µM (inactive) | 17.9 µM (inactive) | 1.3 µM (inactive) | 11.7 µM (inactive) | 17.3 µM (inactive) | 2.75 µM (inactive) | 19 µM (inactive) | 24 µM (inactive) | 0.838 µM (active) | 5.79 µM (inactive) | 13.8 µM (inactive) | 0.275 µM (active) | 16 µM (inactive) | 11.8 µM (inactive)
